{"source": "patent US20250179059A1", "about": "(The Regents of the University of California, priority 2021, published 2025)", "data": [{"molecular_target": "T1, human BRD4 bromodomain II (Homo sapiens, UniProt O60885)", "T1 construct": "human BRD4 bromodomain II [based on Genbank NM_058243, residues 349-460]; host or cells: E. coli", "assay": "Bromodomain binding assay (AlphaScreen), BRD4 BDII", "settings": "AlphaScreen assay, Table C2; read-out: BRD4 BDII IC50", "outline": "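AlphaScreen competition with biotinylated H4 peptide (aa 1-21, K5/K8/K12/K16Ac), using nickel-chelate acceptor and streptavidin donor beads. Targets were His6-BRD4 BDI (44-170) or BDII (349-460), with a 30 min compound preincubation over a 10-point 3-fold series. IC50 was fitted from percentage peptide binding.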", "units": {"IC50": "nM"}, "values": [{"smiles": "CC(=O)Nc1ccc(-c2cccc(-c3ccc(NC(C)=O)c(OC4CCCC4)c3)c2O)cc1F", "note": "[Example 73, N,N′-(3-(Cyclopentyloxy)-3″-fluoro-2′-hydroxy-[1,1′:3′,1″-terphenyl]-4,4″-diyl)diacetamide]", "IC50": "> 100"}, {"smiles": "CC(=O)Nc1ccc(-c2cccc(-c3ccc(C(C)C)cc3)c2O)cc1F", "note": "[Example 74, N-(3-Fluoro-2′-hydroxy-4″-isopropyl-[1,1′:3′,1″-terphenyl]-4-yl)acetamide]", "IC50": "> 100"}, {"smiles": "CC(=O)Nc1ccc(-c2cccc(-c3cccc(C(C)C)c3)c2O)cc1F", "note": "[Example 75, N-(3-Fluoro-2′-hydroxy-3″-isopropyl-[1,1′:3′,1″-terphenyl]-4-yl)acetamide]", "IC50": "> 100"}, {"smiles": "CC(=O)Nc1ccc(-c2cccc(-c3cc(N4CCNCC4)no3)c2O)cn1", "note": "[Example 76, N-(5-(2-Hydroxy-3-(3-(piperazin-1-yl)isoxazol-5-yl)phenyl)pyridin-2-yl)acetamide 2,2,2-trifluoroacetate]", "IC50": "> 100"}, {"smiles": "CC(=O)Nc1ccc(-c2cccc(-c3cccc(Cl)c3)c2O)cc1F", "note": "[Example 77, N-(3″-Chloro-3-fluoro-2′-hydroxy-[1,1′:3′,1″-terphenyl]-4-yl)acetamide]", "IC50": "> 100"}, {"smiles": "CC(=O)Nc1ccc(-c2cccc(-c3cccc(C(F)(F)F)c3)c2O)cc1F", "note": "[Example 78, N-(3-Fluoro-2′-hydroxy-3″-(trifluoromethyl)-[1,1′:3′,1″-terphenyl]-4-yl)acetamide]", "IC50": "> 100"}, {"smiles": "CCc1cccc(-c2cccc(-c3ccc(NC(C)=O)c(F)c3)c2O)c1", "note": "[Example 79, N-(3″-Ethyl-3-fluoro-2′-hydroxy-[1,1′:3′,1″-terphenyl]-4-yl)acetamide]", "IC50": "> 100"}, {"smiles": "CC(=O)Nc1ccc(-c2cccc(-c3ccc(Cl)cc3)c2O)cc1F", "note": "[Example 81, N-(4″-Chloro-3-fluoro-2′-hydroxy-[1,1′:3′,1″-terphenyl]-4-yl)acetamide]", "IC50": "> 100"}, {"smiles": "CCc1ccc(-c2cccc(-c3ccc(NC(C)=O)c(F)c3)c2O)cc1", "note": "[Example 82, N-(4″-Ethyl-3-fluoro-2′-hydroxy-[1,1′:3′,1″-terphenyl]-4-yl)acetamide]", "IC50": "> 100"}, {"smiles": "CC(=O)Nc1ccc(-c2cccc(-c3ccc(C(F)(F)F)cc3)c2O)cc1F", "note": "[Example 83, N-(3-Fluoro-2′-hydroxy-4″-(trifluoromethyl)-[1,1′:3′,1″-terphenyl]-4-yl)acetamide]", "IC50": "> 100"}, {"smiles": "CC(=O)Nc1ccc(-c2cc(F)cc(-c3cnn(C4CCN(C)CC4)c3)c2O)cc1F", "note": "[Example 84, N-(3,5′-Difluoro-2′-hydroxy-3′-(1-(1-methylpiperidin-4-yl)-1H-pyrazol-4-yl)-[1,1′-biphenyl]-4-yl)acetamide]", "IC50": "> 100"}, {"smiles": "CC(=O)Nc1ccc(-c2cccc(-c3cnc(-c4ccccc4)o3)c2O)cc1F", "note": "[Example 85, N-(3-Fluoro-2′-hydroxy-3′-(2-phenyloxazol-5-yl)-[1,1′-biphenyl]-4-yl)acetamide]", "IC50": "> 100"}, {"smiles": "CC(=O)Nc1c(F)cc(-c2cccc(-c3cc(N4CCNCC4)no3)c2O)cc1F", "note": "[Example 86, N-(3,5-Difluoro-2′-hydroxy-3′-(3-(piperazin-1-yl)isoxazol-5-yl)-[1,1′-biphenyl]-4-yl)acetamide 2,2,2-trifluoroacetate]", "IC50": "10 to 100"}, {"smiles": "CC(=O)Nc1ccc(-c2cccc(-c3ccc(NC(C)=O)c(OC(C)C)c3)c2O)cc1F", "note": "[Example 87, N,N′-(3-Fluoro-2′-hydroxy-3″-isopropoxy-[1,1′:3′,1″-terphenyl]-4,4″-diyl)diacetamide]", "IC50": "> 100"}, {"smiles": "CCc1cc(-c2cccc(-c3ccc(NC(C)=O)c(F)c3)c2O)ccc1NC(C)=O", "note": "[Example 88, N,N′-(3-Ethyl-3″-fluoro-2′-hydroxy-[1,1′:3′,1″-terphenyl]-4,4″-diyl)diacetamide]", "IC50": "> 100"}, {"smiles": "CC(=O)Nc1ccc(-c2cccc(-c3cc(N4CCNCC4)no3)c2O)cc1OC1CCCC1", "note": "[Example 89, N-(3-(Cyclopentyloxy)-2′-hydroxy-3′-(3-(piperazin-1-yl)isoxazol-5-yl)-[1,1′-biphenyl]-4-yl)acetamide 2,2,2-trifluoroacetate]", "IC50": "10 to 100"}, {"smiles": "CC(=O)Nc1ccc(-c2cccc(-c3ccc(Oc4ccccc4)cc3)c2O)cc1F", "note": "[Example 90, N-(3-Fluoro-2′-hydroxy-4″-phenoxy-[1,1′:3′,1″-terphenyl]-4-yl)acetamide]", "IC50": "> 100"}, {"smiles": "CC(=O)Nc1ccc(-c2cccc(-c3cccc(Oc4ccccc4)c3)c2O)cc1F", "note": "[Example 91, N-(3-Fluoro-2′-hydroxy-3″-phenoxy-[1,1′:3′,1″-terphenyl]-4-yl)acetamide]", "IC50": "> 100"}, {"smiles": "CCNC(=O)c1ccc(-c2cccc(-c3ccc(NC(C)=O)c(F)c3)c2O)cc1", "note": "[Example 92, 4″-Acetamido-N-ethyl-3″-fluoro-2′-hydroxy-[1,1′:3′,1″-terphenyl]-4-carboxamide]", "IC50": "> 100"}, {"smiles": "CCNC(=O)c1cccc(-c2cccc(-c3ccc(NC(C)=O)c(F)c3)c2O)c1", "note": "[Example 93, 4″-Acetamido-N-ethyl-3″-fluoro-2′-hydroxy-[1,1′:3′,1″-terphenyl]-3-carboxamide]", "IC50": "> 100"}, {"smiles": "CC(=O)Nc1ccc(-c2cccc(-c3ccc(N4CCOCC4)cc3)c2O)cc1F", "note": "[Example 94, N-(3-Fluoro-2′-hydroxy-4″-morpholino-[1,1′:3′,1″-terphenyl]-4-yl)acetamide]", "IC50": "> 100"}, {"smiles": "CC(=O)Nc1ccc(-c2cccc(-c3ccc(NC(C)=O)c(C(C)C)c3)c2O)cc1F", "note": "[Example 96, N,N′-(3-Fluoro-2′-hydroxy-3″-isopropyl-[1,1′:3′,1″-terphenyl]-4,4″diyl)diacetamide]", "IC50": "> 100"}, {"smiles": "COc1cc(-c2cccc(-c3ccc(NC(C)=O)c(F)c3)c2O)ccn1", "note": "[Example 97, N-(3-Fluoro-2′-hydroxy-3′-(2-methoxypyridin-4-yl)-[1,1′-biphenyl]-4-yl)acetamide]", "IC50": "> 100"}, {"smiles": "COc1ccc(-c2cccc(-c3ccc(NC(C)=O)c(F)c3)c2O)cn1", "note": "[Example 98, N-(3-Fluoro-2′-hydroxy-3′-(6-methoxypyridin-3-yl)-[1,1′-biphenyl]-4-yl)acetamide]", "IC50": "10 to 100"}, {"smiles": "CC(=O)Nc1ccc(-c2cccc(-c3ccc(NC(C)=O)c(F)c3)c2O)cc1", "note": "[Example 99, N,N′-(3-Fluoro-2′-hydroxy-[1,1′:3′,1″-terphenyl]-4,4″-diyl)diacetamide]", "IC50": "10 to 100"}, {"smiles": "CC(=O)Nc1c(F)cc(-c2cccc(-c3cc(N4CCNCC4)no3)c2O)cc1OC1CCC1", "note": "[Example 100, N-(3-Cyclobutoxy-5-fluoro-2′-hydroxy-3′-(3-(piperazin-1-yl)isoxazol-5-yl)-[1,1′-biphenyl]-4-yl)acetamide]", "IC50": "1 to 10"}, {"smiles": "CC(=O)Nc1ccc(-c2cccc(-c3ccc4c(c3)CCCN4C(C)=O)c2O)cc1F", "note": "[Example 101, N-(3′-(1-Acetyl-1,2,3,4-tetrahydroquinolin-6-yl)-3-fluoro-2′-hydroxy-[1,1′-biphenyl]-4-yl)acetamide]", "IC50": "> 100"}, {"smiles": "CC(=O)Nc1ccc(-c2cccc(-c3ccnnc3)c2O)cc1F", "note": "[Example 102, N-(3-Fluoro-2′-hydroxy-3′-(pyridazin-4-yl)-[1,1′-biphenyl]-4-yl)acetamide]", "IC50": "10 to 100"}, {"smiles": "CC(=O)Nc1ccc(-c2cccc(-c3cncnc3)c2O)cc1F", "note": "[Example 103, N-(3-Fluoro-2′-hydroxy-3′-(pyrimidin-5-yl)-[1,1′-biphenyl]-4-yl)acetamide]", "IC50": "10 to 100"}, {"smiles": "CC(=O)Nc1ccc(-c2cccc(-c3ccc4c(c3)OCCCN4C(C)=O)c2O)cc1F", "note": "[Example 104, N-(3′-(5-Acetyl-2,3,4,5-tetrahydrobenzo[b][1,4]oxazepin-8-yl)-3-fluoro-2′-hydroxy-[1,1′-biphenyl]-4-yl)acetamide]", "IC50": "> 100"}]}]}
